Test results published in patent US9895346B2, “Applications of substituent benzyloxy group containing ether compounds for preparing antitumor drugs” (Sinochem Corporation, priority 2013, dated 2018).

Experiments:
[1] = tested on: lung cancer cell line A549; experiment: In vitro cell inhibition assay (crystal violet), lung cancer A549; format: cell-based, human
Excerpt: (§1) In vitro Cell inhibition assay is as follows:
(§2) The human cancer cell lines used for this assay were bladder cancer J82, T24, prostate cancer LNCap, PC-3, lung cancer A549, H157, H460, H520, colon cancer HCT8, HCT116, RkO, and leukemia HL-60, etc.
(§3) In vitro cell culture technology was selected for the determination of inhibition rate bladder cancer cell lines J82 and T24, prostate cancer cell lines LNCap and PC-3, lung cancer cell lines A549, H157, H460 and H520. 1000 to 3000 cells were inoculated to 24-well plate, followed by addition of 1 mL culture medium well known to researchers in this field to each well, the cells were cultured in 5% incubator for 24 hours at 37° C., then the different concentration compounds and controls were added to each well. It should be noted that the added volume is not more than 0.5% of total volume. After completion of addition, the cells continued being cultured in incubator for one week, the culture medium was removed and washed by cold PBS of 1 mL once, and then fixed for 10 minutes at room temperature with 1% formalin, followed by wash with PBS of 1 mL. After fixation, stain was carried out with 0.1% crystal violet for 30 minutes. 0.1% crystal violet was recycled. The stained cells were washed gently with deionized water, dried at room temperature and kepted. The inhibition rate was calculated according to the foiling equation. The controls are Selumetinib (AZD6244), Gefitinib, Cisplatin. Inhibition rate=number of left cells each treatment/number of left cells of untreated control×100%

[2] = tested on: human leukemia HL-60 cells; experiment: Proliferation inhibition of human leukemia HL-60 cells, MTT method; format: cell-based; settings: 48 h incubation, OPTI-MEM medium
Description: The inhibition rate of human leukemia HL-60 cells was evaluated by regular MTT method. The human leukemia HL-60 cells were picked up from cell incubator, after washed for twice using PBS, cells were digested by 0.25% trypsin, and then add medium to terminate the digestion. After cells were collected using centrifuge and re-suspended, counting cells under inverted microscope and adding medium to make a density which was 5×10^4 cells/mL. After 100 μL aliquots were added to each well of 96-well microtiter plates, cells were cultured in 5% incubator for overnight at 37° C., then the different concentration compounds were added to each well. After incubation for 48 h, MTT solution was added to each well and plates were then incubated for 4 h. The MTT tetrazolium was reduced to formazan by living cells. Then the formazan crystals were dissolved though adding DMSO to each well. The absorbance was read at 570 nm with a microplate reader.

[3] = tested on: lung cancer cell line H460; experiment: In vitro cell inhibition assay (crystal violet), lung cancer H460; format: cell-based, human
Excerpt: as §1, §2, §3

[4] = tested on: lung cancer cell line H520; experiment: In vitro cell inhibition assay (crystal violet), lung cancer H520; format: cell-based, human
Excerpt: as §1, §2, §3

colon cancer HCT116 = experiment: In vitro cell inhibition assay, colon cancer HCT116; format: cell-based, human
Excerpt: as §1, §2

colon cancer HCT8 = experiment: In vitro cell inhibition assay, colon cancer HCT8; format: cell-based, human
Excerpt: as §1, §2

colon cancer RkO = experiment: In vitro cell inhibition assay, colon cancer RkO; format: cell-based, human
Excerpt: as §1, §2

[5] = tested on: bladder cancer cell line J82; experiment: In vitro cell inhibition assay (crystal violet), bladder cancer J82; format: cell-based, human; settings: Homo sapiens, read-out: Inhibition rate on human cancer cells
Excerpt: as §1, §2, §3

| SMILES | Inhibition rate on human cancer cells ([1]; A549, 5.0 μM) [%] | Inhibition rate on human cancer cells ([3]; H460, 1.0 μM) [%] | Inhibition rate on human cancer cells ([3]; H460, 2.5 μM) [%] | Inhibition rate on human cancer cells ([3]; H460, 5.0 μM) [%] | Inhibition rate on human cancer cells ([4]; H520, 0.25 μM) [%] | Inhibition rate on human cancer cells ([4]; H520, 0.5 μM) [%] | Inhibition rate on human cancer cells ([4]; H520, 1.0 μM) [%] | Inhibition rate on human cancer cells ([4]; H520, 2.5 μM) [%] | Inhibition rate on human cancer cells ([4]; H520, 5.0 μM) [%] | Inhibition rate on human cancer cells ([1]; A549, 0.25 μM) [%] | Inhibition rate on human cancer cells ([1]; A549, 0.5 μM) [%] | Inhibition rate on human cancer cells ([1]; A549, 1.0 μM) [%] | Inhibition rate on human cancer cells ([1]; A549, 2.5 μM) [%] | Inhibition rate on human cancer cells (colon cancer HCT116; HCT 116, 0.25 μM) [%] | Inhibition rate on human cancer cells (colon cancer HCT116; HCT 116, 0.5 μM) [%] | Inhibition rate on human cancer cells (colon cancer HCT116; HCT 116, 1.0 μM) [%] | Inhibition rate on human cancer cells (colon cancer HCT116; HCT 116, 2.5 μM) [%] | Inhibition rate on human cancer cells (colon cancer HCT116; HCT 116, 5.0 μM) [%] | Inhibition rate on human cancer cells ([3]; H460, 0.5 μM) [%] | Inhibition rate on human cancer cells (colon cancer HCT8; HCT 8, 0.25 μM) [%] | further results |
| --- | --- | --- | --- | --- | --- | --- | --- | --- | --- | --- | --- | --- | --- | --- | --- | --- | --- | --- | --- | --- | --- |
| COC=C(C(=O)OC)c1ccccc1COc1ccc2c(C)c(F)c(=O)oc2c1 [Compound 28-50] | 90 | 70 | 90 | 95 | 30 | 50 | 60 | 80 | 100 |  |  |  |  |  |  |  |  |  |  |  | Proliferation inhibitory effect on human leukemia HL-60 cell (%) ([2]; concentration 1 μM): 47.1%; Proliferation inhibitory effect on human leukemia HL-60 cell (%) ([2]; concentration 10 μM): 83.1%; Proliferation inhibitory effect on human leukemia HL-60 cell (%) ([2]; concentration 100 μM): 84.8% |
| COC=C(C(=O)OC)c1ccccc1COc1ccc2c3c(c(=O)oc2c1)CCCC3 [Compound 28-128] | 100 | 100 | 100 | 100 | 70 | 100 | 100 | 100 | 100 | 70 | 100 | 100 | 100 | 95 | 100 | 100 | 100 | 100 | 100 | 95 | Inhibition rate on human cancer cells ([3]; H460, 0.25 μM): 80%; Inhibition rate on human cancer cells (colon cancer HCT8; HCT 8, 0.5 μM): 100%; Inhibition rate on human cancer cells (colon cancer HCT8; HCT 8, 1.0 μM): 100%; Inhibition rate on human cancer cells (colon cancer HCT8; HCT 8, 2.5 μM): 100%; Inhibition rate on human cancer cells (colon cancer HCT8; HCT 8, 5.0 μM): 100%; Inhibition rate on human cancer cells (colon cancer RkO; 0.25 μM): 99%; Inhibition rate on human cancer cells (colon cancer RkO; 0.5 μM): 100%; Inhibition rate on human cancer cells (colon cancer RkO; 1.0 μM): 100%; Inhibition rate on human cancer cells (colon cancer RkO; 2.5 μM): 100%; Inhibition rate on human cancer cells (colon cancer RkO; 5.0 μM): 100% |
| COC=C(C(=O)OC)c1ccccc1COc1ccc2c3c(c(=O)oc2c1C)CCCC3 [Compound 28-129] | 100 | 95 | 100 | 100 | 85 | 95 | 100 | 100 | 100 | 90 | 95 | 100 | 100 | 90 | 95 | 100 | 100 | 100 | 70 | 80 | Inhibition rate on human cancer cells (colon cancer HCT8; HCT 8, 0.5 μM): 95%; Inhibition rate on human cancer cells (colon cancer HCT8; HCT 8, 1.0 μM): 100%; Inhibition rate on human cancer cells (colon cancer HCT8; HCT 8, 2.5 μM): 100%; Inhibition rate on human cancer cells (colon cancer HCT8; HCT 8, 5.0 μM): 100%; Inhibition rate on human cancer cells (colon cancer RkO; 0.25 μM): 85%; Inhibition rate on human cancer cells (colon cancer RkO; 0.5 μM): 99%; Inhibition rate on human cancer cells (colon cancer RkO; 1.0 μM): 100%; Inhibition rate on human cancer cells (colon cancer RkO; 2.5 μM): 100%; Inhibition rate on human cancer cells (colon cancer RkO; 5.0 μM): 100% |
| CO/C=C(/C(=O)OC)c1ccccc1COc1ccc(C(F)(F)F)cc1Cl [compound B, flufenoxystrobin] |  |  |  |  |  |  |  |  |  |  |  |  |  |  |  |  |  |  |  |  | inhibition at 0.25 µM ([5]; J82, 0.25 μM): 0%; inhibition at 0.5 µM ([5]; J82, 0.5 μM): 50%; inhibition at 1 µM ([5]; J82, 1.0 μM): 90%; inhibition at 2.5 µM ([5]; J82, 2.5 μM): 95%; inhibition at 5 µM ([5]; J82, 5.0 μM): 100% |
